Experimental data published in EP0584223B1, “NOVEL IMMUNOSUPPRESSIVE COMPOUNDS” (VERTEX PHARMACEUTICALS INCORPORATED, priority 1991, dated 1992).
pIC50, pKi: −log10 of the molar value.

What was measured:
FKBP = FKBP (Homo sapiens, UniProt P62942); test: Inhibition of FKBP PPIase (rotamase) activity, chymotrypsin-coupled assay; format: biochemical; details: apparent Ki
Excerpt: The inhibition of the PPIase (rotamase) enzyme activity of the FKBP (apparent "Ki" values) can also be measured according to the methods described by either Harding, M.W. et al., Nature 341:758-760 (1989) or Siekierka, J.J. et al., Nature 341:755-757 (1989). The cis-trans isomerization of the […] peptide bond in a model substrate, N-succinyl-Ala-Ala-Pro-Phe-p-nitroanilide, is monitored spectrophotometrically in a coupled assay with chymotrypsin, which releases 4-nitroanilide from the trans form of the substrate. Fischer, G. et al., Nature 337:476-478 (1989). The inhibitory effect of the addition of different concentrations of inhibitor on the extent of the reaction is determined, and analysis of the change in first order rate constant as a function of inhibitor concentration yields an estimate of the apparent Ki value.

[1] = test system: PBLs stimulated with LB human viral-transformed B lymphoblastoid cell line; test: MLR bioassay, PBLs stimulated with LB cells; format: cell-based; details: mixed lymphocyte reaction, LB stimulator cells, inhibition of proliferation, read-out: LB
Excerpt: (§1) Fresh peripheral blood lymphocytes (PBLs) from LeukoPak cells or whole blood from random normal blood donors (tested HIV-negative and hepatitis negative) are isolated and separated by density centrifugation over Histopaque 1077 (Sigma Chemical Co., St. Louis, MO). The murine CTLL cytotoxic T cell line and the human Jurkat T cell line are from ATCC (CTLL-2 ATCC TIB214, JURKAT CLONE E6-1 ATCC TIBl52). The human allogeneic B cell lines used for activation of the fresh PBLs are EBV-transformed lymphocytes from normal healthy adult donors with two completely different HLA haplotypes. All cell lines were routinely tested for the presence of Mycoplasma contamination using the Gibco Mycotect test kit and are Mycoplasma-free. Culture medium consists of RPMI 1640 (Gibco, Grand Island, NY) containing penicillin (50 U/ml) and streptomycin (50 µg/ml), L-glutamine 2 mM, 2 mercaptoethanol (5 x 10^-5), 10% heat-inactivated FCS and 10 mM HEPES.
(§2) All chemical stocks were dissolved in DMSO.
(§3) Antigen activated proliferation of PBLs in a primary mixed lymphocyte reaction was assessed in the presence or absence of different concentrations of tested compounds and control drugs. 5 x 10^4 fresh PBLs were stimulated with 5 x 10^3 of Mitomycin C treated-allogeneic EBV-transformed […] cells, LB and JVM, in a final volume of 200 µl per well in 96-well round-bottomed plates (Mishell, B.B. and S.M. Shiigi, Selected Methods in Cellular Immunology W.H. Freeman and Co., San Francisco, CA (1980); Nelson, P.A. et al., Transplantation 50:286 (1990)). Cultures were pulsed on day 6, harvested 24 h later and counted as in previous section.

[2] = test system: CTLL-20 murine T cell line; test: IL-2 microassay, IL-2 dependent CTLL proliferation; format: cell-based; details: Mus musculus; inhibition of proliferation of cytotoxic T cells stimulated by IL-2; read-out: CTLL
Excerpt: (§4) Fresh peripheral blood lymphocytes (PBLs) from LeukoPak cells or whole blood from random normal blood donors (tested HIV-negative and hepatitis negative) are isolated and separated by density centrifugation over Histopaque 1077 (Sigma Chemical Co., St. Louis, MO). […] The human allogeneic B cell lines used for activation of the fresh PBLs are EBV-transformed lymphocytes from normal healthy adult donors with two completely different HLA haplotypes. All cell lines were routinely tested for the presence of Mycoplasma contamination using the Gibco Mycotect test kit and are Mycoplasma-free. Culture medium consists of RPMI 1640 (Gibco, Grand Island, NY) containing penicillin (50 U/ml) and streptomycin (50 µg/ml), L-glutamine 2 mM, 2 mercaptoethanol (5 x 10^-5), 10% heat-inactivated FCS and 10 mM HEPES.

[3] = test system: PBLs stimulated with JVM human viral-transformed B lymphoblastoid cell line; test: MLR bioassay, PBLs stimulated with JVM cells; format: cell-based; details: mixed lymphocyte reaction, JVM stimulator cells, inhibition of proliferation, read-out: JVM
Excerpt: as §1, §2, §3

[4] = test system: human peripheral blood lymphocytes (PBC); test: Mitogenesis assay, PMA plus ionomycin stimulated proliferation; format: cell-based; details: Lymphocyte, read-out: PMA
Excerpt: as §4

[5] = test system: human peripheral blood lymphocytes (PBC); test: Mitogenesis assay, OKT3 stimulated proliferation; format: cell-based; details: Lymphocyte, OKT3 (10^-4 dilution final), inhibition of proliferation, 3H-thymidine, read-out: OKT3
Excerpt: as §4

Chain of FKBP (P62942 whole entry): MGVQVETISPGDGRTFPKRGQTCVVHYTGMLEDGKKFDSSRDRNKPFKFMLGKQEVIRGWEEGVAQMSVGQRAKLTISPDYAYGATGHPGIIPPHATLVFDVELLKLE

Row | Structure (SMILES) | pKi (FKBP) | pIC50 [1] | pIC50 [2] | pIC50 [3] | pIC50 ([4]; 3 h) | pIC50 [5] | pIC50 [4]
1 | COc1cc(C(=O)C(=O)N2CCCC[C@H]2C(=O)OC(CCCc2ccccc2)c2cccc(Oc3ccccc3)c2)cc(OC)c1OC (mixture of isomers) [Compound 4, (R and S)-1-(3-Phenoxy)phenyl-4-phenyl-1-butyl (S)-N-(3,4,5-trimethoxyphenylglyoxyl)pipecolate] | 6.66 | < 5.00 | < 5.00 | < 5.00 | < 5.00 | < 5.00 | 
2 | COc1cc(C(=O)C(=O)N2CCCC[C@H]2C(=O)OC(CCCc2ccccc2)CCc2cccnc2)cc(OC)c1OC (mixture of isomers) [Compound 7, (R and S)-6-Phenyl-1-(3-pyridyl)-3-hexyl (S)-N-(3,4,5-trimethoxyphenylglyoxyl)pipecolate] |  | 5.30 | 5.70 | 5.30 | 5.70 | 5.70 | 
3 | COc1cc(C(=O)C(=O)N2CCCC[C@H]2C(=O)OC(CCCc2ccccc2)CCCc2cccnc2)cc(OC)c1OC (mixture of isomers) [Compound 9, (R and S)-1-Phenyl-7-(3-pyridyl)-4-heptyl (S)-N-(3,4,5-trimethoxyphenylglyoxyl)pipecolate] |  | 5.22 | 5.60 | 5.22 | 5.74 | 5.92 | 
4 | COc1cc(C(=O)C(=O)N2CCCC[C@H]2C(=O)OC(CCCc2c[nH]c3ccccc23)Cc2ccccc2)cc(OC)c1OC (mixture of isomers) [Compound 11, (R and S)-5-(3-indolyl)-1-phenyl-2-pentyl (S)-N-(3,4,5-trimethoxyphenylglyoxyl)pipecolate] | 7.62 | 5.46 | 5.00 | 5.19 | 5.57 | 5.70 | 
5 | COc1cc(C(=O)C(=O)N2CCCC[C@H]2C(=O)OCC(CCc2ccccc2)Cc2ccccc2)cc(OC)c1OC (mixture of isomers) [Compound 16, (R and S)-2-Benzyl-4-phenyl-1-butyl (S)-N-(3,4,5-trimethoxyphenylglyoxyl)pipecolate] | 7.24 | 5.05 | 5.22 | < 5.00 | 5.30 | 5.15 | 
6 | CC(C)(C)C(=O)C(=O)N1CCCC[C@H]1C(=O)OC(CCCc1ccccc1)CCCc1ccccn1 (mixture of isomers) [Compound 21, (R and S)-1-Phenyl-7-(2-pyridyl)-4-heptyl (S)-N-(tert-butylglyoxyl)-pipecolate] | 7.44 | 5.22 | 5.40 | 5.15 | 5.15 | 5.52 | 
7 | COc1cc(C(=O)C(=O)N2CCCC[C@H]2C(=O)OC(CCCc2ccccc2)CCCc2ccc[n+]([O-])c2)cc(OC)c1OC (mixture of isomers) [Compound 22, (R and S)-1-Phenyl-7-(3-pyridyl)-4-heptyl (S)-N-(3,4,5-trimethoxyphenylglyoxyl)pipecolate N-oxide] |  | 5.66 | 5.64 | 5.60 |  | 5.80 | 5.82
8 | COc1cc(C(=O)C(=O)N2CCC[C@H]2C(=O)OC(CCCc2ccccc2)CCCc2ccccn2)cc(OC)c1OC (stereo partly shown) [Compound 2] | 7.02 | 5.10 | 5.40 | 5.15 | 5.46 | 5.82 | 
9 | COc1cc(C(=O)C(=O)N2CCCC[C@H]2C(=O)OC(CCCc2ccccc2)CCCc2ccccc2)cc(OC)c1OC [Compound 3, (S)-1,7-Diphenyl-4-heptanyl N-(3,4,5-trimethoxyphenylglyoxyl)pipecolate] |  | 5.00 | 5.10 | 5.07 | < 5.10 | 5.65 | 
10 | COc1cc(C(=O)C(=O)N2CCCC[C@H]2C(=O)OC(CCCc2ccccc2)Cc2ccccc2)cc(OC)c1OC (stereo partly shown) [Compound 10] | 7.49 | 5.26 | 5.22 | 5.10 | 5.26 | 5.40 | 
11 | COc1cc(C(=O)C(=O)N2CCCC[C@H]2C(=O)OC(CCCc2ccccc2)CCc2ccccc2)cc(OC)c1OC (stereo partly shown) [Compound 12] | 7.08 | 5.00 | 5.09 | 5.00 | 5.15 | 5.30 | 
12 | COc1ccc(CCC(CCCc2ccccc2)OC(=O)[C@@H]2CCCCN2C(=O)C(=O)c2ccccc2)cc1 (stereo partly shown) [Compound 14] | 6.57 | < 5.00 | < 5.00 | < 5.00 | < 5.00 | < 5.00 | 
13 | COc1cc(C(=O)C(=O)N2CCCC[C@H]2C(=O)OC(CCCc2ccccc2)CCCn2cnc3ccccc32)cc(OC)c1OC (stereo partly shown) [Compound 15] |  | 5.22 | 5.30 | 5.10 |  | 5.52 | 5.52
14 | O=C(C(=O)N1CCCC[C@H]1C(=O)OC(CCCc1ccccc1)CCCc1cccnc1)c1ccccc1 (stereo partly shown) [Compound 18] | 7.25 | 5.10 | 5.15 | 5.05 | 5.30 | 5.15 | 
15 | O=C(C(=O)N1CCCC[C@H]1C(=O)OC(CCCc1ccccc1)CCCc1ccccn1)c1ccccc1 (stereo partly shown) [Compound 19] | 7.30 | 5.00 | 5.30 | 5.00 | 5.22 | 5.10 | 
16 | COc1cc(C(=O)C(=O)N2CCCC[C@H]2C(=O)OC(CCCc2ccccc2)CCCn2ccc3cccnc32)cc(OC)c1OC (stereo partly shown) [Compound 23] |  | 5.15 | 5.46 | 5.22 |  | 5.15 | 5.30
17 | O=C(C(=O)N1CCCC[C@H]1C(=O)OC(CCCc1ccccc1)CCCc1cccnc1)c1cccc(OCc2ccccc2)c1 (stereo partly shown) [Compound 27] | 7.82 | 5.00 | 5.30 | 5.22 | 5.22 | 5.40 | 
18 | C=CCOc1cccc(C(=O)C(=O)N2CCCC[C@H]2C(=O)OC(CCCc2ccccc2)CCCc2cccnc2)c1 (stereo partly shown) [Compound 28] | 7.96 | 5.10 | 5.52 | 5.05 | 5.30 | 5.22 | 
19 | COc1cc(C(=O)C(=O)N2CCCC[C@H]2C(=O)OC(CCCCc2ccccc2)CCCc2ccccc2)cc(OC)c1OC (stereo partly shown) [Compound 32] | 7.70 | < 5.00 | 5.12 | < 5.00 | 5.05 | 5.10 | 
20 | COc1cc(C(=O)C(=O)N2CCCC[C@H]2C(=O)OC(CCCc2ccccc2)c2ccccc2CO)cc(OC)c1OC (stereo partly shown) [Compound 33] | 7.05 | 5.70 | 5.52 | 5.35 | 5.30 | 5.30 | 
21 | COc1cc(C(=O)C(=O)N2CCCC[C@H]2C(=O)OC(CCCc2ccccc2)c2ccccc2O)cc(OC)c1OC (stereo partly shown) [Compound 38] |  | < 5.00 | < 5.00 | < 5.00 |  | 5.30 | < 5.00
22 | COc1cc(C(=O)C(=O)N2CCCC[C@H]2C(=O)OC(CCCc2ccccc2)c2cccnc2)cc(OC)c1OC (stereo partly shown) [Compound 39] | 8.00 |  | 5.60 | 5.30 | 5.22 | 5.26 | 
23 | COc1cc(C(=O)C(=O)N2CCCC[C@H]2C(=O)OC(CCCCc2ccccc2)CCCc2cccs2)cc(OC)c1OC (stereo partly shown) [Compound 40] | 5.96 | < 5.00 | 5.00 | < 5.00 | < 5.00 | < 5.00 | 
24 | COc1cc(C(=O)C(=O)N2CCCC[C@H]2C(=O)OC(CCCCCc2ccccc2)CCCc2ccccc2)cc(OC)c1OC (stereo partly shown) [Compound 41] | 7.35 | < 5.00 | < 5.00 | 5.00 | 5.15 | < 5.00 | 
